Key:
field poppy = experiment: Test D preemergence; type: in vivo, Papaver rhoeas; settings: Papaver rhoeas, pre-emergence
Method in brief: (§1)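 Plant response is a visual score from 0 (no effect) to 100 (complete control) relative to controls. Plants were kept in a controlled growth environment for 7 to 21 days after spraying. Preemergence treatments went onto silt loam soil; postemergence ones onto 1- to 4-leaf seedlings.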

chamomile = experiment: Test D postemergence; type: in vivo, Matricaria inodora; settings: Tripleurospermum inodorum, post-emergence
Method in brief: as §1

wild radish [1] = experiment: Test D postemergence; type: in vivo, Raphanus raphanistrum; settings: Raphanus raphanistrum, post-emergence
Method in brief: as §1

windgrass [2] = experiment: Test D preemergence; type: in vivo, Apera spica-venti; settings: Apera spica-venti, pre-emergence
Method in brief: as §1

Italian ryegrass = experiment: Test D preemergence; type: in vivo, Lolium multiflorum; settings: Lolium multiflorum, pre-emergence
Method in brief: as §1

dallisgrass = experiment: Test F preemergence; type: in vivo, Paspalum dilatatum; settings: 21 days, scale 0 to 100
Method in brief: (§2)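 Seeds were sown in a loam soil–sand blend and treated preemergence with compounds formulated in a non-phytotoxic solvent mixture containing surfactant. Pots were kept in a greenhouse for 21 days, then visually rated against untreated controls on a 0–100 scale (0 = no effect, 100 = complete control).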

blackgrass = experiment: Test D preemergence; type: in vivo, Alopecurus myosuroides; settings: Alopecurus myosuroides, pre-emergence
Method in brief: as §1

wild mustard = experiment: Test D preemergence; type: in vivo, Sinapis arvensis; settings: Brassica, pre-emergence
Method in brief: as §1

galium = experiment: Test D preemergence; type: in vivo, Galium aparine; settings: Galium, pre-emergence
Method in brief: as §1

foxtail, green = experiment: Test F preemergence; type: in vivo, Setaria viridis; settings: 21 days, scale 0 to 100
Method in brief: as §2

mallow = experiment: Test F preemergence; type: in vivo, Malva sylvestris; settings: 21 days, scale 0 to 100
Method in brief: as §2

dayflower = experiment: Test F preemergence; type: in vivo, Commelina virginica; settings: 21 days, scale 0 to 100
Method in brief: as §2

chickweed = experiment: Test D preemergence; type: in vivo, Stellaria media; settings: Stellaria media, pre-emergence
Method in brief: as §1

wild radish [3] = experiment: Test D preemergence; type: in vivo, Raphanus raphanistrum; settings: Raphanus raphanistrum, pre-emergence
Method in brief: as §1

signalgrass = experiment: Test F preemergence; type: in vivo, Brachiaria platyphylla; settings: 21 days, scale 0 to 100
Method in brief: as §2

windgrass [4] = experiment: Test D postemergence; type: in vivo, Apera spica-venti; settings: Apera spica-venti, post-emergence
Method in brief: as §1

SMILES: N#Cc1cccc(Oc2ncc(Cl)cn2)c1-n1cc(OCC(F)(F)F)cn1 [Compound 274, 3-[(5-chloro-2-pyrimidinyl)oxy]-2-[4-(2,2,2-trifluoroethoxy)-1H-pyrazol-1-yl]benzonitrile]
- pest or weed control at 16 g/ha (field poppy; 16 g ai/ha, scale 0 (no effect) to 100 (complete control), read-out: Plant response rating, Field Poppy): 75%
- pest or weed control at 31 g/ha (field poppy; 31 g ai/ha, scale 0-100, read-out: Plant response rating, Field Poppy): 100%
- pest or weed control at 62 g/ha (field poppy; 62 g ai/ha, scale 0-100, read-out: Plant response rating, Field Poppy): 100%
- pest or weed control at 125 g/ha (field poppy; 125 g ai/ha, scale 0-100, read-out: Plant response rating, Field Poppy): 100%
- pest or weed control at 16 g/ha (chamomile; 16 g ai/ha, scale 0-100, read-out: Plant response rating, Chamomile): 5%
- pest or weed control at 31 g/ha (chamomile; 31 g ai/ha, scale 0 to 100 (0 no effect, 100 complete control), read-out: Plant response rating, Chamomile): 10%
- pest or weed control at 62 g/ha (chamomile; 62 g ai/ha, scale 0 to 100 (0 no effect, 100 complete control), read-out: Plant response rating, Chamomile): 25%
- pest or weed control at 125 g/ha (chamomile; 125 g ai/ha, scale 0 to 100 (0 no effect, 100 complete control), read-out: Plant response rating, Chamomile): 25%
- pest or weed control at 16 g/ha (wild radish [1]; 16 g ai/ha, scale 0-100, read-out: Plant response rating, Radish, Wild): 70%
- pest or weed control at 31 g/ha (wild radish [1]; 31 g ai/ha, scale 0 to 100 (0 no effect, 100 complete control), read-out: Plant response rating, Radish, Wild): 70%
- pest or weed control at 62 g/ha (wild radish [1]; 62 g ai/ha, scale 0 to 100 (0 no effect, 100 complete control), read-out: Plant response rating, Radish, Wild): 70%
- pest or weed control at 125 g/ha (wild radish [1]; 125 g ai/ha, scale 0 to 100 (0 no effect, 100 complete control), read-out: Plant response rating, Radish, Wild): 90%
- pest or weed control at 16 g/ha (windgrass [2]; 16 g ai/ha, scale 0 (no effect) to 100 (complete control), read-out: Plant response rating, Windgrass): 20%
- pest or weed control at 31 g/ha (windgrass [2]; 31 g ai/ha, scale 0 (no effect) to 100 (complete control), read-out: Plant response rating, Windgrass): 90%
- pest or weed control at 125 g/ha (windgrass [2]; 125 g ai/ha, scale 0-100, read-out: Plant response rating, Windgrass): 100%
- pest or weed control at 16 g/ha (Italian ryegrass; 16 g ai/ha, scale 0 (no effect) to 100 (complete control), read-out: Plant response rating, Ryegrass, Italian): 0%
- pest or weed control at 31 g/ha (Italian ryegrass; 31 g ai/ha, scale 0 (no effect) to 100 (complete control), read-out: Plant response rating, Ryegrass, Italian): 0%
- pest or weed control at 125 g/ha (Italian ryegrass; 125 g ai/ha, scale 0-100, read-out: Plant response rating, Ryegrass, Italian): 70%
- Plant response rating, Dallisgrass (dallisgrass; 16 g ai/ha): 95
- Plant response rating, Dallisgrass (dallisgrass; 31 g ai/ha): 100
- Plant response rating, Dallisgrass (dallisgrass; 62 g ai/ha): 100
- Plant response rating, Dallisgrass (dallisgrass; 125 g ai/ha): 100
- Plant response rating, Dallisgrass (dallisgrass; 250 g ai/ha): 100
- pest or weed control at 16 g/ha (blackgrass; 16 g ai/ha, scale 0 (no effect) to 100 (complete control), read-out: Plant response rating, Blackgrass): 10%
- pest or weed control at 31 g/ha (blackgrass; 31 g ai/ha, scale 0-100, read-out: Plant response rating, Blackgrass): 30%
- pest or weed control at 62 g/ha (blackgrass; 62 g ai/ha, scale 0-100, read-out: Plant response rating, Blackgrass): 70%
- pest or weed control at 125 g/ha (blackgrass; 125 g ai/ha, scale 0-100, read-out: Plant response rating, Blackgrass): 95%
- pest or weed control at 16 g/ha (wild mustard; 16 g ai/ha, scale 0 (no effect) to 100 (complete control), read-out: Plant response rating, Mustard, Wild): 15%
- pest or weed control at 31 g/ha (wild mustard; 31 g ai/ha, scale 0-100, read-out: Plant response rating, Mustard, Wild): 25%
- pest or weed control at 62 g/ha (wild mustard; 62 g ai/ha, scale 0-100, read-out: Plant response rating, Mustard, Wild): 95%
- pest or weed control at 125 g/ha (wild mustard; 125 g ai/ha, scale 0-100, read-out: Plant response rating, Mustard, Wild): 100%
- pest or weed control at 16 g/ha (galium; 16 g ai/ha, scale 0 (no effect) to 100 (complete control), read-out: Plant response rating, Galium): 0%
- pest or weed control at 31 g/ha (galium; 31 g ai/ha, scale 0-100, read-out: Plant response rating, Galium): 60%
- pest or weed control at 62 g/ha (galium; 62 g ai/ha, scale 0-100, read-out: Plant response rating, Galium): 100%
- pest or weed control at 125 g/ha (galium; 125 g ai/ha, scale 0-100, read-out: Plant response rating, Galium): 100%
- Plant response rating, Foxtail, Green (foxtail, green; 16 g ai/ha): 100
- Plant response rating, Foxtail, Green (foxtail, green; 31 g ai/ha): 100
- Plant response rating, Foxtail, Green (foxtail, green; 62 g ai/ha): 100
- Plant response rating, Foxtail, Green (foxtail, green; 125 g ai/ha): 100
- Plant response rating, Foxtail, Green (foxtail, green; 250 g ai/ha): 100
- Plant response rating, Mallow (mallow; 16 g ai/ha): 98
- Plant response rating, Mallow (mallow; 31 g ai/ha): 98
- Plant response rating, Mallow (mallow; 62 g ai/ha): 98
- Plant response rating, Mallow (mallow; 125 g ai/ha): 100
- Plant response rating, Mallow (mallow; 250 g ai/ha): 100
- Plant response rating, Dayflower, VA (dayflower; 16 g ai/ha): 90
- Plant response rating, Dayflower, VA (dayflower; 31 g ai/ha): 95
- Plant response rating, Dayflower, VA (dayflower; 62 g ai/ha): 98
- Plant response rating, Dayflower, VA (dayflower; 125 g ai/ha): 100
- Plant response rating, Dayflower, VA (dayflower; 250 g ai/ha): 100
- pest or weed control at 16 g/ha (chickweed; 16 g ai/ha, scale 0 (no effect) to 100 (complete control), read-out: Plant response rating, Chickweed): 60%
- pest or weed control at 31 g/ha (chickweed; 31 g ai/ha, scale 0-100, read-out: Plant response rating, Chickweed): 85%
- pest or weed control at 62 g/ha (chickweed; 62 g ai/ha, scale 0-100, read-out: Plant response rating, Chickweed): 100%
- pest or weed control at 125 g/ha (chickweed; 125 g ai/ha, scale 0-100, read-out: Plant response rating, Chickweed): 100%
- pest or weed control at 16 g/ha (wild radish [3]; 16 g ai/ha, scale 0 (no effect) to 100 (complete control), read-out: Plant response rating, Radish, Wild): 5%
- pest or weed control at 31 g/ha (wild radish [3]; 31 g ai/ha, scale 0 (no effect) to 100 (complete control), read-out: Plant response rating, Radish, Wild): 5%
- pest or weed control at 125 g/ha (wild radish [3]; 125 g ai/ha, scale 0-100, read-out: Plant response rating, Radish, Wild): 85%
- Plant response rating, Signalgrass (signalgrass; 16 g ai/ha): 75
- Plant response rating, Signalgrass (signalgrass; 31 g ai/ha): 70
- Plant response rating, Signalgrass (signalgrass; 62 g ai/ha): 100
- Plant response rating, Signalgrass (signalgrass; 125 g ai/ha): 100
- Plant response rating, Signalgrass (signalgrass; 250 g ai/ha): 100
- pest or weed control at 16 g/ha (windgrass [4]; 16 g ai/ha, scale 0-100, read-out: Plant response rating, Windgrass): 15%
- pest or weed control at 31 g/ha (windgrass [4]; 31 g ai/ha, scale 0 to 100 (0 no effect, 100 complete control), read-out: Plant response rating, Windgrass): 25%
- pest or weed control at 62 g/ha (windgrass [4]; 62 g ai/ha, scale 0 to 100 (0 no effect, 100 complete control), read-out: Plant response rating, Windgrass): 35%
- pest or weed control at 125 g/ha (windgrass [4]; 125 g ai/ha, scale 0 to 100 (0 no effect, 100 complete control), read-out: Plant response rating, Windgrass): 35%
